Laboratory results taken from patent publication US20250145715A1, “B7-H3 TARGETING FUSION PROTEINS AND METHODS OF USE THEREOF” (GT Biopharma, Inc., priority 2021, published 2025).

Legend:
[1] = system: NK cells (CD56+CD3−); test: NK cell proliferation in PBMCs, CellTrace Violet dilution; type: cell-based, human
Experimental: FIGS. 2A-2H illustrates that cam1615B7-H3 TriKE induces potent, and specific, natural killer (NK) cell proliferation. Peripheral blood mononuclear cells (PBMCs) were CellTrace Violet labeled and incubated for seven days at 5 nM equimolar concentrations of rhIL-15 or cam1615B7-H3 TriKE. On day 7, the cells were harvested and stained for flow cytometric evaluation. […] FIG. 2B is a graph illustrating pooled data showing the overall proportion of NK cells that proliferated. FIG. 2C is a graph illustrating pooled data showing the proportion of NK cells that highly proliferated (measured as proliferation beyond three divisions). FIG. 2D is a graph illustrating pooled data showing NK cell counts in the cultures (N=9). FIG. 2E is a representative histogram showing T cell (CD56− CD3+) proliferation. FIG. 2F is a graph illustrating pooled data showing the overall proportion of T cells proliferated. FIG. 2G is a graph illustrating pooled data showing the proportion of T cells highly proliferated. […]
The wild-type IL-15 moiety in the cam1615B7-H3 TriKE was designed to induce targeted delivery of a proliferative signal to NK cells. […] At the end of the seven days, cells were harvested and proliferation was evaluated by gating on CD56+CD3− cells. […] Since IL-15 acts on both NK cells and T cells, specificity was evaluated next by gating on T cells (CD56-CD3+). […]

[2] = system: OVCAR8 cells; test: IncuCyte real-time tumor-killing assay, OVCAR8; type: cell-based, human; settings: enriched NK cells, E:T 2:1, 30 nM, 48 h; vs controls
Experimental: Healthy donor or ovarian cancer PBMC cells were incubated with ovarian tumor targets at 2:1 E:T ratio for 4 hrs with 30 nM TriKE or control condition. FIG. 30A is a graph illustrating pooled proportion of NK cells from healthy donors expressing CD107a+ (degranulation) against OVCAR8 targets (N=8). FIG. 30B is a graph illustrating pooled proportion of NK cells from healthy donors expressing IFNγ cytokine production against OVCAR8 targets (N=8). FIG. 30C is a graph illustrating pooled proportion of NK cells from healthy donors expressing CD107a+ (degranulation) against OVCAR3 targets (N=4). […] FIG. 30I is a graph illustrating that tumor killing was evaluated using IncuCyte imaging assay. […] The percentage of Live (Nuclight Red+Caspase 3/7−) tumor cells was quantified over a 48-h period and normalized to tumor alone. Readings were obtained every 15 min (representative of four separate experiments). * p<0.05, ** p<0.01, *** p<0.001, and **** p<0.0001.
Tumor killing was evaluated in real-time using the IncuCyte platform. […] Caspase-3/7 green dye (Sartorious, Ann Arbor, MI, USA) was added to pick up dying cells that have not yet lost NuclightRed fluorescence. […] Images from three technical replicates were taken every 15 min for 48 h using a 4× objective lens and then analyzed using IncuCyte™ Basic Software v2018A (Sartorious). […]

cam1615B7-H3: second-generation TriKE: humanized camelid anti-CD16 VHH, human wild-type IL-15, anti-B7-H3 mAb 376.96 scFv; SEQ ID NO:1
overall NK cell proliferation ([1]; PBMCs, 7 days, 5 nM equimolar): overall increase in proliferation that was similar in amplitude to that induced by rhIL-15
NK cell proliferation (3 or more rounds of division) vs IL-15 alone ([1]; compared to IL-15 alone): more potent at inducing NK cell proliferation
killing of OVCAR8 tumor cells over two days [2]: robust and rapid tumor killing
